Test results as given in patent publication US10172868B2, “Substituted quinazolines for inhibiting kinase activity” (NeuPharma, Inc., priority 2013, dated 2019).

How the values were obtained:
EGFR (ErbB1) T790M = EGFR (ErbB1) T790M (Homo sapiens (Human), UniProt P00533, T790M); assay: Z'-LYTE kinase inhibition assay, EGFR T790M; assay type: biochemical; settings: read-out: % inhibition against EGFR T790M (Compound at 1 μM)
Procedure: Inhibitory activities of compounds against BTK, EGFR and EGFR mutants (EGFR L858R, EGFR T790M, EGFR L858R/T790M), FGFR1, FGFR2, JAK2, JAK3 and KDR were measured by Invitrogen using Z'-LYTE® Method as briefly described in the following. Test Compounds are screened in 1% DMSO (final) in the well. For 10 point titrations, 3-fold serial dilutions are conducted from the starting concentration. All ATP Solutions are diluted to a 4× working concentration in Kinase Buffer (50 mM HEPES pH 7.5, 0.01% BRIJ-35, 10 mM MgCl2, 1 mM EGTA). Peptide/Kinase Mixtures are diluted to a 2× working concentration in the appropriate Kinase Buffers as described below. (iii) Peptide/Kinase Mixtures for Measurement of EGFR (ErbB1) T790M: […] After the 1 hour Kinase Reaction incubation, 5 μL of a 1:64 dilution of Development Reagent B is added. Reaction starts by 30-second shaking of mixture consisting of 2.5 μL 4× test compound, […] 2× kinase reaction mixture and 2.5 μL 4×ATP Solution on Bar-coded Corning, low volume NBS, black 384-well plate (Corning Cat. #3676). Then the mixture is incubated for 60-minute at room temperature for the kinase reaction, followed by addition of 5 μL of a 1:1024 dilution of development reagent A and 30-second plate shake. The mixture is then incubated for another 60-minute at room temperature for development reaction. Finally fluorescence is read by plate reader.

BTK = BTK (Homo sapiens (Human), UniProt Q06187); assay: Z'-LYTE kinase inhibition assay, BTK; assay type: biochemical; settings: for inhibition at 0.041 µM: compound at 0.041 μM, read-out: % inhibition against BTK; for IC50: read-out: IC50 against BTK
Outline: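 Z'-LYTE FRET assay with Tyr 01 peptide in 50 mM HEPES pH 7.5, 10 mM MgCl2, 1 mM EGTA, 0.01% BRIJ-35. Compounds in 1% DMSO were tested as 10-point, 3-fold titrations.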

JAK2 = JAK2 (Homo sapiens (Human), UniProt O60674); assay: Z'-LYTE kinase inhibition assay, JAK2; assay type: biochemical; settings: compound at 0.041 μM; read-out: % inhibition against JAK2
Procedure: (§1) Inhibitory activities of compounds against BTK, EGFR and EGFR mutants (EGFR L858R, EGFR T790M, EGFR L858R/T790M), FGFR1, FGFR2, JAK2, JAK3 and KDR were measured by Invitrogen using Z'-LYTE® Method as briefly described in the following.
(§2) Test Compounds are screened in 1% DMSO (final) in the well. For 10 point titrations, 3-fold serial dilutions are conducted from the starting concentration. All ATP Solutions are diluted to a 4× working concentration in Kinase Buffer (50 mM HEPES pH 7.5, 0.01% BRIJ-35, 10 mM MgCl2, 1 mM EGTA). Peptide/Kinase Mixtures are diluted to a 2× working concentration in the appropriate Kinase Buffers as described below.
(v) Peptide/Kinase Mixtures for Measurement of JAK2:
The 2×JAK2/Tyr 06 mixture is prepared in 50 mM HEPES pH 7.5, 0.01% BRIJ-35, 10 mM MgCl2, 1 mM EGTA. The final 10 μL Kinase Reaction consists of 0.06-0.81 ng JAK2 and 2 μM Tyr 06 in 50 mM HEPES pH 7.5, 0.01% BRIJ-35, 10 mM MgCl2, 1 mM EGTA. After the 1 hour Kinase Reaction incubation, 5 μL of a 1:64 dilution of Development Reagent A is added.
(§3) Reaction starts by 30-second shaking of mixture consisting of 2.5 μL 4× test compound, […] 2× kinase reaction mixture and 2.5 μL 4×ATP Solution on Bar-coded Corning, low volume NBS, black 384-well plate (Corning Cat. #3676). Then the mixture is incubated for 60-minute at room temperature for the kinase reaction, followed by addition of 5 μL of a 1:1024 dilution of development reagent A and 30-second plate shake. The mixture is then incubated for another 60-minute at room temperature for development reaction. Finally fluorescence is read by plate reader.

FGFR1 = FGFR1 (Homo sapiens (Human), UniProt P11362); assay: Z'-LYTE kinase inhibition assay, FGFR1; assay type: biochemical; settings: for inhibition at 0.041 µM: compound at 0.041 μM, read-out: % inhibition against FGFR1; for IC50: read-out: IC50 against FGFR1
Procedure: as §1, §2
(v) Peptide/Kinase Mixtures for Measurement of FGFR1:
The 2×FGFR1/Tyr 04 mixture is prepared in 50 mM HEPES pH 7.5, 0.01% BRIJ-35, 10 mM MgCl2, 4 mM MnCl2, 1 mM EGTA, 2 mM DTT. The final 10 μL Kinase Reaction consists of 0.41-3.5 ng FGFR1 and 2 μM Tyr 04 in 50 mM HEPES pH 7.5, 0.01% BRIJ-35, 10 mM MgCl2, 2 mM MnCl2, 1 mM EGTA, 1 mM DTT. After the 1 hour Kinase Reaction incubation, 5 μL of a 1:64 dilution of Development Reagent B is added.
as §3
To determine IC50 of a compound against EGFR, EGFR mutant and other kinases, a series of concentrations of the compound were tested for the inhibition. […] The scale utilized in Table 4 is as follows: +++ less than 100 nM, ++ 100-500 nM and + greater than 500 nM.

A431 cells = assay: cells; settings: Homo sapiens, A-431, 72 h, read-out: IC50 in A431 cells

Sequence of EGFR (ErbB1) T790M (P00533 25-1210 T790M): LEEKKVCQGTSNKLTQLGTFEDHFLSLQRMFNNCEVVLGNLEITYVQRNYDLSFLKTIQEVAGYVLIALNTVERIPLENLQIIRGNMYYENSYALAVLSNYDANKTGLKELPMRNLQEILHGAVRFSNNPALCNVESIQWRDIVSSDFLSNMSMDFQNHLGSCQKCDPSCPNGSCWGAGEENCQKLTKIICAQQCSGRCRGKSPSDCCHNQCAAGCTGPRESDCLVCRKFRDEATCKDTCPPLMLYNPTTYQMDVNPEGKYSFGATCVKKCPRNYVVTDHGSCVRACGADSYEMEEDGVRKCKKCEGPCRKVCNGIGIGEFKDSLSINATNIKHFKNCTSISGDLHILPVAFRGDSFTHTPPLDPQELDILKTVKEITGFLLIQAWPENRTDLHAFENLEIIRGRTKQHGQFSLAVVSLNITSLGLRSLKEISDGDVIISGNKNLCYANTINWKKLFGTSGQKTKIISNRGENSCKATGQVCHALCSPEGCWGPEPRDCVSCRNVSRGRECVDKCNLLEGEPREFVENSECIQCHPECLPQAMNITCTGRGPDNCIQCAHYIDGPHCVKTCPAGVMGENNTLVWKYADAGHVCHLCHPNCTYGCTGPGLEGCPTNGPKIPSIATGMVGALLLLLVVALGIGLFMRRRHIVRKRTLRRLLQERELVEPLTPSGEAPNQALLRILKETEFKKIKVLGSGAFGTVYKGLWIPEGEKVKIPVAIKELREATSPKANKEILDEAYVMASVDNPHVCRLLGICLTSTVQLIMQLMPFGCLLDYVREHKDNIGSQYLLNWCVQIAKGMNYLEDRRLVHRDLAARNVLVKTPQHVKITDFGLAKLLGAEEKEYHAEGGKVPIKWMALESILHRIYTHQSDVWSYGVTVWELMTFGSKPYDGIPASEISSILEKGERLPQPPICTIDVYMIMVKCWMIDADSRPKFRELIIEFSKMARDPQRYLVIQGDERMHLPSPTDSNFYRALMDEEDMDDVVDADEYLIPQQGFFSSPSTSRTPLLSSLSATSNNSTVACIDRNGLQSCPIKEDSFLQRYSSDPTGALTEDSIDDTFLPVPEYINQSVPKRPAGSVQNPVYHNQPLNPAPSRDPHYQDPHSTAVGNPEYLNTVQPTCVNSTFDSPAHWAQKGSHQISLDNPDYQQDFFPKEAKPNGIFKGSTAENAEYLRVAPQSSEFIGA
Sequence of FGFR1 (P11362 22-822): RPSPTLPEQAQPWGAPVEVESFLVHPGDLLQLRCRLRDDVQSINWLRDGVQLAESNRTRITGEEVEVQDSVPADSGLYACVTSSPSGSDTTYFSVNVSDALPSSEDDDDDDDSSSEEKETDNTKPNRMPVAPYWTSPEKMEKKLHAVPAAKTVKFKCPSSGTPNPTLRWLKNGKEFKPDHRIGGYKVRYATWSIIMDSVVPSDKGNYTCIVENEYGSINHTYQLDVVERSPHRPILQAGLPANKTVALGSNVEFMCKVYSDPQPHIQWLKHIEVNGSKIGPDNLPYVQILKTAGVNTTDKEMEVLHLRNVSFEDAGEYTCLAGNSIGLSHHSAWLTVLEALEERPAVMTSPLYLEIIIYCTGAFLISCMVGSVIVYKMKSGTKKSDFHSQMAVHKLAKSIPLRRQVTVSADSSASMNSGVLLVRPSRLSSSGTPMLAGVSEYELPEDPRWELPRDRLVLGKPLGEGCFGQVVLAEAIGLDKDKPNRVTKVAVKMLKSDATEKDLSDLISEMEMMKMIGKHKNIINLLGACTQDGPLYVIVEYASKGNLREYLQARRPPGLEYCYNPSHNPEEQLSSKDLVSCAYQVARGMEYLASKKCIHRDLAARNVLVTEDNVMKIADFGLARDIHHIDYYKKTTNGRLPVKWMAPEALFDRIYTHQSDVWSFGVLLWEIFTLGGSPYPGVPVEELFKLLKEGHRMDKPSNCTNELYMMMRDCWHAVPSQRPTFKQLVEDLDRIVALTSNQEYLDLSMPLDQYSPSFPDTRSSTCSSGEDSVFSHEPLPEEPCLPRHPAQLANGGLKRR
Sequence of BTK (Q06187 whole entry): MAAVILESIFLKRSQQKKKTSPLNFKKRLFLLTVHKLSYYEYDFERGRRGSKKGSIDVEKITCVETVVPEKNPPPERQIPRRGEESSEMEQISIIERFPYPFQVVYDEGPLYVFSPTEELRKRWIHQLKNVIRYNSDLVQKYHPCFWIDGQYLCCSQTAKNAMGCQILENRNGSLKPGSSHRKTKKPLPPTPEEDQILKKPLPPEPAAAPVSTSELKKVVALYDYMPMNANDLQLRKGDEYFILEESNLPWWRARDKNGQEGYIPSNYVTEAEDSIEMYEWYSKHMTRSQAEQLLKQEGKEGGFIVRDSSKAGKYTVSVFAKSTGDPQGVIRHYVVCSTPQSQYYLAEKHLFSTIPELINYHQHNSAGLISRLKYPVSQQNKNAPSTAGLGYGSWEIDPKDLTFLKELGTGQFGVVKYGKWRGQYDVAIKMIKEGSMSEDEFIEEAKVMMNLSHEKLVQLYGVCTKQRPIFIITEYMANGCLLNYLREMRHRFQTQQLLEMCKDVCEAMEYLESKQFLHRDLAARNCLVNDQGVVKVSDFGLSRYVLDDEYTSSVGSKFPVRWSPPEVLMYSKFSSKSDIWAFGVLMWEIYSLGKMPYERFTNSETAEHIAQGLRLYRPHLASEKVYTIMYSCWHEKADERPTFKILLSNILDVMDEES
Sequence of JAK2 (O60674 whole entry): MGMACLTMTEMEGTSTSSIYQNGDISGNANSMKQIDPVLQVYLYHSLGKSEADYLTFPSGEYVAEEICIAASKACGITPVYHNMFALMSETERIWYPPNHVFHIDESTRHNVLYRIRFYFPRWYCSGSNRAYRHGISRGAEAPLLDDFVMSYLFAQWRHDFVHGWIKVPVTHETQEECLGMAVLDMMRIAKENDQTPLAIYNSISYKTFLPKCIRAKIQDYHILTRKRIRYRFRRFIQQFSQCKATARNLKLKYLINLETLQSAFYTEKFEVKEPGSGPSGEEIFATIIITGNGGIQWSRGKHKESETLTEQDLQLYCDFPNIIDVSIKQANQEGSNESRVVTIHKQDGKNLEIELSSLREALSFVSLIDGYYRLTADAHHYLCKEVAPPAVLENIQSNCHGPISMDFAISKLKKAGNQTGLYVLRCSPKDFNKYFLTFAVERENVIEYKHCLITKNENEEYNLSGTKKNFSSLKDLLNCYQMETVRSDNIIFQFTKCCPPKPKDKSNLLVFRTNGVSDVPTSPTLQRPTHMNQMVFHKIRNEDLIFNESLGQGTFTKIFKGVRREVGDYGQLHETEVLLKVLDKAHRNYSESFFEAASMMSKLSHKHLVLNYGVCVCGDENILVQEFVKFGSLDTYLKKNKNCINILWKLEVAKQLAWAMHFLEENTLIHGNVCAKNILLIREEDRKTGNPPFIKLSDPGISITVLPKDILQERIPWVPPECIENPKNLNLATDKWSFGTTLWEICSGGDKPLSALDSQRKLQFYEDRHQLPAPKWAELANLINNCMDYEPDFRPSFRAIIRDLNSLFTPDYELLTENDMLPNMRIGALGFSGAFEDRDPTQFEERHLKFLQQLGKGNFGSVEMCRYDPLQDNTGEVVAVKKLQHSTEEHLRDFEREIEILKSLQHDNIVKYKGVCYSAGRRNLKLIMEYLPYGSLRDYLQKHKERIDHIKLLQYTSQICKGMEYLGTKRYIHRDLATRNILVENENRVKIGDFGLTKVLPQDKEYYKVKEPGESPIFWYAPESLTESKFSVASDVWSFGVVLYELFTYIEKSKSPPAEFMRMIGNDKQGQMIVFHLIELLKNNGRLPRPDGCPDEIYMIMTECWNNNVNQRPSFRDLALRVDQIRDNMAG

| inhibition at 1 µM (EGFR (ErbB1) T790M) [%] | inhibition at 0.041 µM (BTK) [%] | inhibition at 0.041 µM (JAK2) [%] | inhibition at 0.041 µM (FGFR1) [%] | IC50 (A431 cells) [nM] | SMILES | IC50 (BTK) [nM] | IC50 (FGFR1) [nM] |
| --- | --- | --- | --- | --- | --- | --- | --- |
| < 50 | < 50 | > 50 | < 50 | – | Clc1cccc(-c2cccc3cnc(Nc4ccc(N5CCOCC5)cc4)nc23)c1 [Example C008, 8-(3-chlorophenyl)-N-(4-morpholinophenyl)quinazolin-2-amine] | – | – |
| – | – | – | < 50 | > 500 | C=CC(=O)Nc1cccc(-c2cccc3cnc(Nc4ccc(N5CCN(C)CC5)cc4F)nc23)c1 [Example C044, N-(3-(2-((2-fluoro-4-(4-methylpiperazin-1-yl)phenyl)amino)quinazolin-8-yl)phenyl)acrylamide] | < 100 | – |
| > 50 | > 50 | < 50 | – | > 500 | C=CC(=O)Nc1cccc(-c2nccc3cnc(Nc4ccc(N5CCOCC5)cc4)nc23)c1 [Example C012, N-(3-(2-((4-morpholinophenyl)amino)pyrido[3,4-d]pyrimidin-8-yl)phenyl)acrylamide] | – | – |
| < 50 | < 50 | > 50 | – | – | Fc1cccc(-c2cccc3cnc(Nc4ccc(N5CCOCC5)cc4)nc23)c1 [Example C009, 8-(3-fluorophenyl)-N-(4-morpholinophenyl)quinazolin-2-amine] | – | – |
| < 50 | > 50 | < 50 | – | – | C=CC(=O)Nc1cccc(-c2nccc3c(N)nc(Nc4ccc(N5CCOCC5)cc4)nc23)c1 [Example C005, N-(3-(4-amino-2-((4-morpholinophenyl)amino)pyrido[3,4-d]pyrimidin-8-yl)phenyl)acrylamide] | – | – |
| – | > 50 | > 50 | > 50 | 100 to 500 | C=CC(=O)Nc1cccc(-c2cccc3cnc(Nc4ccc(N5CCN(CCF)CC5)cc4)nc23)c1 [Example C053, N-(3-(2-((4-(4-(2-fluoroethyl)piperazin-1-yl)phenyl)amino)quinazolin-8-yl)phenyl)acrylamide] | – | – |
| < 50 | – | – | – | – | Fc1ccccc1-c1cccc2cnc(Nc3ccc(N4CCOCC4)cc3)nc12 [Example C010, 8-(2-fluorophenyl)-N-(4-morpholinophenyl)quinazolin-2-amine] | – | – |
| < 50 | – | – | – | – | Fc1ccc(Cl)cc1-c1cccc2cnc(Nc3ccc(N4CCOCC4)cc3)nc12 [Example C007, 8-(5-chloro-2-fluorophenyl)-N-(4-morpholinophenyl)quinazolin-2-amine] | – | – |
| < 50 | – | – | – | > 500 | Clc1ccccc1-c1cccc2cnc(Nc3ccc(N4CCOCC4)cc3)nc12 [Example C011, 8-(2-chlorophenyl)-N-(4-morpholinophenyl)quinazolin-2-amine] | – | – |

The remaining lines, values behind:

| SMILES | inhibition at 1 µM (EGFR (ErbB1) T790M) [%] | inhibition at 0.041 µM (BTK) [%] | inhibition at 0.041 µM (JAK2) [%] | inhibition at 0.041 µM (FGFR1) [%] | IC50 (A431 cells) [nM] | IC50 (BTK) [nM] | IC50 (FGFR1) [nM] |
| --- | --- | --- | --- | --- | --- | --- | --- |
| C=CC(=O)Nc1cccc(-c2cccc3cnc(Nc4ccc(N5CCN(C)CC5)nc4)nc23)c1 [Example C041, N-(3-(2-((6-(4-methylpiperazin-1-yl)pyridin-3-yl)amino)quinazolin-8-yl)phenyl)acrylamide] | – | – | – | – | > 500 | < 100 | < 100 |
| c1ccc(-c2cccc3cnc(Nc4ccc(N5CCOCC5)cc4)nc23)cc1 [Example C004, N-(4-morpholinophenyl)-8-phenylquinazolin-2-amine] | < 50 | < 50 | > 50 | – | – | – | – |
| C=CC(=O)Nc1cccc(-c2cccc3cnc(Nc4ccc(N5CCN(C)CC5)cc4OC)nc23)c1 [Example C003, N-(3-(2-((2-methoxy-4-(4-methylpiperazin-1-yl)phenyl)amino)quinazolin-8-yl)phenyl)acrylamide] | > 50 | – | – | – | > 500 | – | – |
| C=CC(=O)Nc1cccc(-c2cccc3cnc(Nc4ccc(N5CCOCC5)cc4OC)nc23)c1 [Example C002, N-(3-(2-((2-methoxy-4-morpholinophenyl)amino)quinazolin-8-yl)phenyl)acrylamide] | > 50 | – | – | – | > 500 | – | – |
| C=CC(=O)Nc1cccc(-c2cccc3cnc(Nc4ccc(N5CCN(C)CC5)cc4)nc23)c1 [Example C021, N-(3-(2-((4-(4-methylpiperazin-1-yl)phenyl)amino)quinazolin-8-yl)phenyl)acrylamide] | – | > 50 | > 50 | > 50 | 100 to 500 | < 100 | < 100 |
| C=CC(=O)Nc1cccc(-c2cccc3cnc(Nc4ccc(N5CCOCC5)cc4)nc23)c1 [Example C001, N-(3-(2-((4-morpholinophenyl)amino)quinazolin-8-yl)phenyl)acrylamide] | > 50 | > 50 | > 50 | > 50 | > 500 | – | – |
| C=CC(=O)Nc1cccc(-c2cccc3cnc(Nc4ccc(N5CCN(CCO)CC5)cc4)nc23)c1 [Example C059, N-(3-(2-((4-(4-(2-hydroxyethyl)piperazin-1-yl)phenyl)amino)quinazolin-8-yl)phenyl)acrylamide] | – | – | – | > 50 | 100 to 500 | < 100 | < 100 |
